In the NIST ThermoML archive (doi:10.1016/j.fluid.2007.10.016):
± gives the expanded uncertainty stated by the source.

Experiments:
[1] = Liquid; for mass density: 298.15 K, 101.33 kPa; for vapor or sublimation pressure: Ebulliometric method (Recirculating still)
[2] = refractive index (Na D-line) (dimensionless); details: 298.15 K; 101.33 kPa; Liquid; Standard Abbe refractometry

| SMILES | mass density [1] [kg/m3] | vapor or sublimation pressure ([1]; 330 K) [kPa] | vapor or sublimation pressure ([1]; 340 K) [kPa] | refractive index [2] |
| --- | --- | --- | --- | --- |
| CC(C)O [propan-2-ol] | 780.91 ± 0.31 | 33.25 ± 0.19 | 52.97 ± 0.26 | 1.37504 ± 0.00072 |
| CC(C)CC(C)(C)C [2,2,4-trimethylpentane] | 687.79 ± 0.41 | 25.47 ± 0.14 | 36.64 ± 0.19 | 1.38894 ± 0.00072 |
| CC(=O)C(C)C [3-methyl-2-butanone] | 799.55 ± 0.45 | 27.69 ± 0.16 | 40.45 ± 0.2 | 1.3862 ± 0.00072 |
